Patent publication EP0185066B1, “SULPHUR-CONTAINING DERIVATIVES OF PARA-METHOXYCINNAMIC ACID, PRODUCTION PROCESSES THEREOF, DERMO-PHARMACEUTICAL AND COSMETIC COMPOSITIONS CONTAINING THEM AND APPLICATIONS” (UNIVERSITE LOUIS PASTEUR (STRASBOURG I), priority 1984, dated 1986)

How the values were obtained:
[1] = UV absorption spectrum (sunscreen filtering range); format: physicochemical
Source text: Les composés de formule III conformes à la présente invention possèdent des propriétés de filtres solaires intéressants. Ils présentent un maximum d'efficacité tant au niveau de leur capacité d'absorption ultra-violette qu'à celui de leur fixation sur la peau. Leur spectre d'absorption se situe dans la zone des U.V.B. érythématogènes avec un maximum vers 310 nm; ils laissent passer les rayons U.V.A.

[2] = design: species or system lapin; conditions: in vivo
Source text: Une étude in vivo de la fixation des filtres soufrés de formules III et Il à la couche cornée a été réalisée sur la peau de lapin. Aucune trace d'acide para-méthoxycinnamique, métabolite de tout filtre solaire de formules III ou II, n'a pu être décelée dans le sang des lapins traités. La méthode d'analyse par chromatographie en phase gazeuse couplée à la spectrométrie de masse permet de déceler des concentrations de l'ordre de 10 pg. L'on peut donc en conclure que ces composés ne pénètrent pas dans le torrent circulatoire, contrairement au para-méthoxycinnamate d'éthyle-2-hexyle évoqué dans le préambule ainsi que les produits obtenus à partir du Brevet Pierre FABRE.
Le composé présentant des propriétés de filtre solaire, conforme à la présente invention est incorporé à la concentration 5% dans une émulsion qui peut avoir par exemple la composition suivante:
Méthode de recherche de l'acide para-méthoxycinnamique (métabolite) dans le sang de lapin après application des filtres solaires soufrés conformes à l'invention incorporé dans l'émulsion précédente. • - Conditions d'application et préjèvement plasmatiques
2 g d'émulsion à tester sont appliqués sur la peau épilée du lapin. […] Les mesures sont effectuées sur la fraction plasmatique. - Déterminations quantitatives en CPG(SM […]

Compound | maximum d'absorption U.V. [1] [nm] | concentration d'acide para-méthoxycinnamique retrouvé dans le sang [2]
COc1ccc(/C=C/C(=O)OCCS)cc1 [II, para-méthoxycinnamatede thio-2-éthanol] | 310 | 
COc1ccc(/C=C/C(=O)OCCSSCC(N)C(=O)O)cc1 (stereo not drawn) [III (n = 2, m = 1, R2 = H et R1 = OH)] | 310 | 
CCCCC(CC)COC(=O)C=Cc1ccc(OC)cc1 (stereo not drawn) [PMCEH, para-méthoxycinnamate d'éthyle-2 hexyle] |  | comprise entre le ng et plusieurs µg
